Data from the NIST ThermoML archive (doi:10.1016/j.fluid.2015.09.019).
Numbers after ± are expanded uncertainties.

Tests used:
[1] = Crystal; DTA
[2] = Molar enthalpy of transition or fusion; conditions: Crystal; DSC

Normal melting temperature [1]: 107.00 ± 1.1 °C
Molar enthalpy of transition or fusion [2]: 4.86 ± 0.22 kcal/mol
SMILES: CC1=CC(=O)c2ccccc2C1=O [2-methyl-1,4-naphthalenedione]
